Measured values as given in PMC4854023, “Orthology Analysis and In Vivo Complementation Studies to Elucidate the Role of DIR1 during Systemic Acquired Resistance in Arabidopsis thaliana and Cucumis sativus” (Frontiers in Plant Science, 2016).

Columns and labels:
[1] = target: T1, CsDIR1 (Cucumis sativus, UniProt A0A0A0K4Q7); test: TNS fluorescence displacement; assay type: binding; conditions: 16 uM ligand; TNS 5 uM (methods) or 3 uM; pH 7 buffer; in cavity or allosteric
T1 construct: gene Csa_7G372360; Rosetta Gami E. coli; S-Tag thrombin purification; His-tagged
T1 sequence (A0A0A0K4Q7 25-103): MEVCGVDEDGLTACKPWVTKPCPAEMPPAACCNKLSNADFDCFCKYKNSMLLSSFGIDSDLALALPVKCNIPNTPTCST

[2] = target: T2, CsDIR2 (Cucumis sativus, UniProt A0A0A0KZ41); test: TNS fluorescence displacement; assay type: binding; conditions: 16 uM ligand; TNS 5 uM (methods) or 3 uM; pH 7 buffer; in cavity or allosteric
T2 construct: gene Csa_4G017140; Rosetta Gami E. coli; S-Tag thrombin purification; His-tagged
T2 sequence (A0A0A0KZ41 26-101): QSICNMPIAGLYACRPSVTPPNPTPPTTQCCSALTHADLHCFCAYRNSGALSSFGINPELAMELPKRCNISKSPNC

Compound | % lower TNS fluorescence than MES control [1] | % lower TNS fluorescence than MES control [2]
O=C(O)CCCCCCCC(=O)O [AzA] | ~ 25% | ~ 30%
O=C(O)[C@@H]1CCCCN1 [Pip] | ~ 25% | –
